Measurements published in US20220380430A1, “Non-Transgenic Functional Rescue of Neuropeptides” (Worcester Polytechnic Institute, priority 2021, published 2022).
No end group written: not given here.

Test system: trh-1 mutant worms
Assay: Size comparison (body volume) after rescue-by-feeding
Format: in vivo, C. elegans
Conditions: trh-1 mutant animals fed peptide; N2 set as 100%
Experimental: All animals were maintained on bacterial lawns of OP50 E. coli, at 20° C., on NGM agar plates until the start of experiments. Mutant or control animals were transferred onto lawns of DH5α E. coli expressing either scramble peptide or the rescue peptide-of-interest on NGM plates containing […] AMP and 1 mM IPTG. Animals were reared on the peptide-expressing lawns for at least 48 hours at 20° C. before assaying for rescue of mutant phenotype at the appropriate developmental stage.
The body morphology different of trh-1 mutants was compared to wild-type worms by body volume measurements. Wild-type (N2) and trh-1 animals were synchronized by embryonic starvation following alkaline hypochlorite protocols. Ten gravid hermaphrodites from OP50 E. coli plates were picked into 30 μL drops of alkaline hypochlorite solution (20% sodium hypochlorite, 500 mM KOH). Two drops were placed on either side of an unseeded NGM plate, resulting in 20 animals per plate. Plates were then incubated for 24 hours at 20° C. before L1 larval animals washed with 1 mL M9 (22 mM KH2PO4, 42.25 mM Na2HPO4, 85.5 mM NaCl, 1 mM MgSO4) per unseeded NGM plate. Allow L1 worms to settle into pellet before removing M9 supernatant. Repeat washing step 2 more times. Plate worm pellet onto NGM with […] AMP and 1 mM IPTG plates containing 75 μL peptide lawns.
After at 48 hours at 20° C., animals were recorded using a Basler acA2500-14 uM camera using WormLab software (WormLab 4.1; MBF Bioscience, 2017) for 65 seconds. Worm length, width, and area were calculated within the WormLab software (FIG. 5C-FIG. 5H). As the WormLab worm width metric is an average of cross-sections throughout the length of each worm, this was used to calculate the volume of a worm as a cylinder, with the Volume=π*(0.5*width)^2*length (FIG. 2A-FIG. 2B, FIG. 5A-FIG. 5B).
Two to four plates were recorded per day for at least three days to generate data sets. Control plates of N2 and trh-1 animals raised on the scramble peptide were grown alongside every rescue feeding. Each “worm track” was considered an n=1. Tracks were excluded if (1) worm tracks less than 10 seconds, or (2) worms were further than two standard deviations from the mean metric. Following tests for normality, comparisons were made using either Mann-Whitney tests for direct comparisons between N2 and trh-1 animals reared on OP50, or Kruskal-Wallis non-parametric ANOVAs and Dunn's multiple comparisons tests for animals raised on peptide feeding strains. Comparisons were made for metrics: length (FIG. 5C-FIG. 5D), width (FIG. 5e-FIG. 5F), area (FIG. 5G-FIG. 5H), and volume (FIG. 2A-FIG. 2B, FIG. 5A-FIG. 5B).

NSKLHRGGGRSRTSGSTGSMASHARGSPGLQ-NH2 [SCRAMBLE, scramble control peptide expressed in E. coli DH5α, negative control, reference compound]
Relative Body Volume: ~120%
